In general, Kd refers to the concentration at which binding is half-saturated. Read a low Kd as a tighter complex.

For test [1], the target named is T1, FLT3 Autoinh. (Homo sapiens, UniProt P36888).
T1 construct: purchased DiscoverX (KINOMEscan); host or cells: E. coli BL21-derived host (T7 phage) or HEK-293
T1 sequence (P36888 564-993 limits assumed): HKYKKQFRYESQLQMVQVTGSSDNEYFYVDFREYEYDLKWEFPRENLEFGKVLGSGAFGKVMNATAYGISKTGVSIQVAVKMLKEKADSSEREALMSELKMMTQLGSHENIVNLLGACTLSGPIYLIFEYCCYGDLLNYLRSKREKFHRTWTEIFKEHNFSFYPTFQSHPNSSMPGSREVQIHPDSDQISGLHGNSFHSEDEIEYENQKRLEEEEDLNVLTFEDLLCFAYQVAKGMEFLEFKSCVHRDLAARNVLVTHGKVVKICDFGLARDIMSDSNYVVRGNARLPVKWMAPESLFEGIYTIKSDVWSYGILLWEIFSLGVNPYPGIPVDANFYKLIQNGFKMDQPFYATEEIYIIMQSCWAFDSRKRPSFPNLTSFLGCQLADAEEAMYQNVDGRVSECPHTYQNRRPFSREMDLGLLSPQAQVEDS
Put plainly: DiscoverX KINOMEscan competition binding assay, FLT3 Autoinh. Particulars: 11-point 3-fold dilution. The text has this: (§1) […]. […] As a result, the data report thermodynamic interaction affinities (Kd values), rather than IC50 values that are dependent on ATP concentrations. The assay uses a DNA-tagged version of the protein kinase, and an immobilized ligand bound to a solid support. Compounds that directly or indirectly prevent kinase binding to the immobilized ligand reduce the amount of kinase captured on the solid support, which is detected using an ultra-sensitive qPCR method. Affinity constants reported from the assay have been reported to be independent of the immobilized ligand used that is coupled to the solid support (See supplemental information in Fabian, M. A. et. al., (2005) Nat. Biotechnol. 23, 329-336; Wodicka, L. M. et. al., (2010) Chem. Biol. 17, 1241-1249.)
(§2) Kinase-tagged T7 phage strains were prepared in an E. coli host derived from the BL21 strain. E. coli were grown to log-phase and infected with T7 phage and incubated with shaking at 32° C. until lysis. The lysates were centrifuged and filtered to remove cell debris. The remaining kinases were produced in HEK-293 cells and subsequently tagged with DNA for qPCR detection. Streptavidin-coated magnetic beads were treated with biotinylated small molecule ligands for 30 minutes at room temperature to generate affinity resins for kinase assays. The liganded beads were blocked with excess biotin and washed with blocking buffer (SeaBlock (Pierce), 1% BSA, 0.05% Tween 20, 1 mM DTT) to remove unbound ligand and to reduce non-specific binding. […] Test compounds were prepared as 111× stocks in 100% DMSO. Kds were determined using an 11-point 3-fold compound dilution series with three DMSO control points. All compounds for Kd measurements are distributed by acoustic transfer (non-contact dispensing) in 100% DMSO. The compounds were then diluted directly into the assays such that the final concentration of DMSO was 0.9%. All reactions were performed in polypropylene 384-well plates. Each was a final volume of 0.02 mL. […] The kinase concentration in the eluates was measured by qPCR.
(§3) Binding constants (Kds) were calculated with a standard dose-response curve using the Hill equation. The Hill Slope was set to −1. Curves were fitted using a non-linear least square fit with the Levenberg-Marquardt algorithm.

Test [2] deals with T2, FLT3 (Homo sapiens, UniProt P36888).
T2 sequence (P36888 27-993): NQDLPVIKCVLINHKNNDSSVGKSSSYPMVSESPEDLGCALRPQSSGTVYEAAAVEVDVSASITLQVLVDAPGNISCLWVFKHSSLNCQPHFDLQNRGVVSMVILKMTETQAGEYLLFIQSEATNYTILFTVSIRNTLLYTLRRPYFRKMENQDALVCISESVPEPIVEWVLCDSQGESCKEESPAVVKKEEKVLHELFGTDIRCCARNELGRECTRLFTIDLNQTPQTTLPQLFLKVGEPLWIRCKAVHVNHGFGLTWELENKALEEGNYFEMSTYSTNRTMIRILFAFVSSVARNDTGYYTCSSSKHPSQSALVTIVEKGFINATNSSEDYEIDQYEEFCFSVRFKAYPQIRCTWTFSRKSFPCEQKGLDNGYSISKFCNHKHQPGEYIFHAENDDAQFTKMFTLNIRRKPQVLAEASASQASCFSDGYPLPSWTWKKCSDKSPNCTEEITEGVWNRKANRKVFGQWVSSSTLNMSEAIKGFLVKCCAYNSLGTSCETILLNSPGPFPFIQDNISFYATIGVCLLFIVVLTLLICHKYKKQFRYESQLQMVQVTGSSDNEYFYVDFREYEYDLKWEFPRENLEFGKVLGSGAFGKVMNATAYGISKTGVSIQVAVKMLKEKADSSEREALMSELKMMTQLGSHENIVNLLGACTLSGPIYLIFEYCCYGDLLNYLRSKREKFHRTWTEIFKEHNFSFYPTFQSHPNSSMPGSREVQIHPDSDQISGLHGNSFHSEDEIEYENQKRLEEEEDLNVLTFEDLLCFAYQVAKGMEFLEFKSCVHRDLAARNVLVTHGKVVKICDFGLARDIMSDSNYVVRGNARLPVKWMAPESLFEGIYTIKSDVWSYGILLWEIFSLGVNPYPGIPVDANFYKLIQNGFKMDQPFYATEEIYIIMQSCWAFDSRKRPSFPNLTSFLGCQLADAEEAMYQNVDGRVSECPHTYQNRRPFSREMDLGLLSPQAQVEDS
Put plainly: DiscoverX KINOMEscan competition binding assay, FLT3. Conditions: 11-point 3-fold dilution. Set-up: purchased Reaction Biology (RBC HotSpot).
Excerpt: as §1, §2, §3

Regarding `COc1cc2ncc(-c3nc(N[C@H]4CNCC[C@@H]4F)ncc3F)n2nc1C1CC1` [Compound 1a, 4-(6-cyclopropyl-7-methoxyimidazo[1,2-b]pyridazin-3-yl)-5-fluoro-N-((3S,4S)-4-fluoropiperidin-3-yl)pyrimidin-2-amine], the Kd in test [1] was 2.2 nM; in test [2], less than 0.17 nM.
As for `FC(F)COc1cc2ncc(-c3ccnc(N[C@H]4CNCC[C@@H]4F)n3)n2nc1C1CC1` [Compound 4a, 4-(6-cyclopropyl-7-(2,2-difluoroethoxy)imidazo[1,2-b]pyridazin-3-yl)-N-((3 S,4S)-4-fluoropiperidin-3-yl)pyrimidin-2-amine], the results for the Kd in test [1] and in test [2] were 21 nM and less than 0.17 nM, respectively.
Regarding `COc1cc2ncc(-c3nc(N[C@H]4CNCC[C@@H]4F)ncc3F)n2nc1C(C)(C)O` [Compound 45a, 2-(3-(5-fluoro-2-(((3S,4S)-4-fluoropiperidin-3-yl)amino)pyrimidin-4-yl)-7-methoxyimidazo[1,2-b]pyridazin-6-yl)propan-2-ol], the values for the Kd in test [1] and in test [2] were 11 nM and 1.1 nM, respectively.
As for `CC(C)(O)c1ccc2ncc(-c3nc(N[C@H]4CNCC[C@@H]4F)ncc3F)n2c1` [Compound 46a, 2-(3-(5-fluoro-2-(((3S,4S)-4-fluoropiperidin-3-yl)amino)pyrimidin-4-yl)imidazo[1,2-a]pyridin-6-yl)propan-2-ol], the Kd in test [1] is 7.1 nM; in test [2], 1.2 nM.
In the case of `COc1cc2ncc(-c3nc(N[C@H]4CNCC[C@@H]4F)ncc3F)n2nc1C1COC1` [Compound 92a, 5-fluoro-N-((3S,4S)-4-fluoropiperidin-3-yl)-4-(7-methoxy-6-(oxetan-3-yl)imidazo[1,2-b]pyridazin-3-yl)pyrimidin-2-amine], the Kd in test [1] is 3.3 nM; in test [2], less than 0.17 nM.
The matching figures for `CC(C)(O)c1cn2c(-c3nc(N[C@H]4CNCC[C@@H]4F)ncc3F)cnc2cn1` [Compound 100a, 2-(3-(5-fluoro-2-(((3S,4S)-4-fluoropiperidin-3-yl)amino)pyrimidin-4-yl)imidazo[1,2-a]pyrazin-6-yl)propan-2-ol]: 57 nM and 16 nM.
As to `COc1cc2ncc(-c3nc(N[C@H]4CNCC[C@@H]4F)ncc3F)n2nc1N1CCCS1(=O)=O` [Compound 112a, 2-(3-(5-fluoro-2-(((3S,4S)-4-fluoropiperidin-3-yl)amino)pyrimidin-4-yl)-7-methoxyimidazo[1,2-b]pyridazin-6-yl)isothiazolidine 1,1-dioxide], the Kd is 2.7 nM in test [1] and less than 0.17 nM in test [2].
